ChEMBL document CHEMBL1201862, “PubChem BioAssay data set” (2004)
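Dose response: 5 concentrations. Exposure: 48 h. Format: 96-well plates. Endpoint: linear interpolation; highest concentration if not reached. GI50: concentration for 50% inhibition of growth.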 The source made the active and inactive calls. Rule as the data show it: active = GI50 up to about 1.1 µM and inactive = higher.

Key:
Experiment in all cases: NCI tumour cell line growth inhibition, 48 h
[1] = system: SK-MEL-5
[2] = system: COLO 205
[3] = system: SK-MEL-28
[4] = system: OVCAR-8
[5] = system: OVCAR-3
[6] = system: SF-539
[7] = system: U-251
[8] = system: IGROV-1
[9] = system: SNB-75
[10] = system: HOP-62
[11] = system: HT-29
[12] = system: 786-0
[13] = system: HCC 2998
[14] = system: HCT-116
[15] = system: UACC-257
[16] = system: MDA-N
[17] = system: A498
[18] = system: UO-31
[19] = system: NCI/ADR-RES
[20] = system: CCRF-CEM

| SMILES | GI50 [1] | GI50 [2] | GI50 [3] | GI50 [4] | GI50 [5] | GI50 [6] | GI50 [7] | GI50 [8] | GI50 [9] | GI50 [10] | GI50 [11] | GI50 [12] | GI50 [13] | GI50 [14] | GI50 [15] | GI50 [16] | GI50 [17] | GI50 [18] | GI50 [19] | GI50 [20] |
| --- | --- | --- | --- | --- | --- | --- | --- | --- | --- | --- | --- | --- | --- | --- | --- | --- | --- | --- | --- | --- |
| CCC1C(NC(=O)OC)C(=O)N1[C@@H](C)c1ccccc1 (some centres undefined) | > 100 µM (inactive) | > 100 µM (inactive) | > 100 µM (inactive) | > 100 µM (inactive) | > 100 µM (inactive) | > 100 µM (inactive) | > 100 µM (inactive) | > 100 µM (inactive) | 82.6 µM (inactive) | > 100 µM (inactive) | > 100 µM (inactive) | > 100 µM (inactive) | > 100 µM (inactive) | > 100 µM (inactive) | > 100 µM (inactive) | > 100 µM (inactive) | > 100 µM (inactive) | > 100 µM (inactive) | > 100 µM (inactive) | – |
| Cc1ccc([N+](=O)[O-])cc1S(=O)(=O)Nc1ccc(C2=NN(S(=O)(=O)c3cc([N+](=O)[O-])ccc3C)C(c3ccccc3O)C2)cc1 (centres undefined) | > 100 µM (inactive) | > 100 µM (inactive) | > 100 µM (inactive) | > 100 µM (inactive) | 67.3 µM (inactive) | – | 30.6 µM (inactive) | 98.9 µM (inactive) | 31.1 µM (inactive) | 47.5 µM (inactive) | > 100 µM (inactive) | 30.8 µM (inactive) | > 100 µM (inactive) | > 100 µM (inactive) | > 100 µM (inactive) | > 100 µM (inactive) | 10.4 µM (inactive) | > 100 µM (inactive) | 99.8 µM (inactive) | > 100 µM (inactive) |
| CC(C)NCC(O)c1ccc(OCc2ccccc2)c(OCc2ccccc2)c1-c1ccccc1 (centres undefined) | 1.25 µM (inactive) | 1.7 µM (inactive) | 1.76 µM (inactive) | 1.73 µM (inactive) | 1.8 µM (inactive) | 1.58 µM (inactive) | 1.67 µM (inactive) | 1.41 µM (inactive) | 1.28 µM (inactive) | 1.79 µM (inactive) | 1.66 µM (inactive) | 1.71 µM (inactive) | 1.69 µM (inactive) | 1.79 µM (inactive) | 1.88 µM (inactive) | 1.69 µM (inactive) | 2.49 µM (inactive) | 2.52 µM (inactive) | 2 µM (inactive) | 1.95 µM (inactive) |
| CC(=O)O[C@@H]1[C@H](C(C)C)[C@@H](OC(C)=O)C/C(C)=C/CC[C@]2(C)O[C@@H]12 | > 100 µM (inactive) | > 100 µM (inactive) | > 100 µM (inactive) | > 100 µM (inactive) | > 100 µM (inactive) | – | > 100 µM (inactive) | > 100 µM (inactive) | > 100 µM (inactive) | > 100 µM (inactive) | > 100 µM (inactive) | > 100 µM (inactive) | > 100 µM (inactive) | > 100 µM (inactive) | > 100 µM (inactive) | > 100 µM (inactive) | > 100 µM (inactive) | > 100 µM (inactive) | > 100 µM (inactive) | – |
| NC(CSC(c1ccccc1)(c1ccccc1)c1ccccc1)C(=O)O (centres undefined) | 0.69 µM (active) | 0.665 µM (active) | 10 µM (inactive) | 0.904 µM (active) | 1.7 µM (inactive) | 0.396 µM (active) | 0.69 µM (active) | 2.12 µM (inactive) | 1.74 µM (inactive) | 1.43 µM (inactive) | 2.94 µM (inactive) | 0.971 µM (active) | 0.716 µM (active) | 0.615 µM (active) | 1.84 µM (inactive) | 1.08 µM (active) | 1.51 µM (inactive) | 18.5 µM (inactive) | 6.67 µM (inactive) | 0.583 µM (active) |
| O=C1CC(Cc2n[nH]c3c2CCCC3)CC(=O)N1 | > 100 µM (inactive) | > 100 µM (inactive) | > 100 µM (inactive) | > 100 µM (inactive) | > 100 µM (inactive) | > 100 µM (inactive) | > 100 µM (inactive) | > 100 µM (inactive) | > 100 µM (inactive) | > 100 µM (inactive) | > 100 µM (inactive) | > 100 µM (inactive) | > 100 µM (inactive) | > 100 µM (inactive) | > 100 µM (inactive) | > 100 µM (inactive) | > 100 µM (inactive) | – | > 100 µM (inactive) | 37.1 µM (inactive) |
| N/C(=N\c1ccccc1)c1ccccc1N | > 100 µM (inactive) | > 100 µM (inactive) | 19.6 µM (inactive) | > 100 µM (inactive) | > 100 µM (inactive) | – | > 100 µM (inactive) | > 100 µM (inactive) | 80.2 µM (inactive) | > 100 µM (inactive) | > 100 µM (inactive) | > 100 µM (inactive) | > 100 µM (inactive) | > 100 µM (inactive) | > 100 µM (inactive) | > 100 µM (inactive) | > 100 µM (inactive) | > 100 µM (inactive) | > 100 µM (inactive) | 40.6 µM (inactive) |
